# Values joined by “and” are separate entries in the source; they are usually repeats but may differ in a detail not shown here. Equal entries are not always repeated.
# Assays:
# hepatoma = conditions: given systemically; cited from earlier work
# hepatocellular carcinoma [1] = conditions: subcutaneously; untreated controls 4 months; cited from earlier work
# viable hepatoma = assay: Diagnostic quantitation of tumor uptake by ^195m cisplatinum gamma camera imaging after HAI; type: in vivo, patients
# Experimental: (§1) The rationale for HAI cisplatinum was evaluated in a diagnostic quantitative study trial utilizing radioactive ^195m cisplatinum. The radiopharmaceutical was prepared using a ^194 Pt target and irradiation from neutron flux in a fission reactor (45,46). […] The study was approved by the institutional review board and radiation safety committee of Cooper Hospital University Medical Center for use of up to a 1.0 mCi dose of ^195m cisplatinum, delivered intra-arterially. Institutional Review Board approved informed consent documents were signed by all patients participating in this study.
# Platinum-195m is a radionuclide with a physical half-life of 4.02 days. As it decays by isomeric transition it emits several photons imageable by scintillation camera. Six patients were imaged thirty minutes after administration of ^195m cisplatinum (252-1011 μCi) using a dual-head gamma camera system equipped with low-energy parallel-hole collimators. The camera was peaked at 76 keV with an energy window setting of 37%. […] Tumors and normal liver containing Pt-195m uptake were identified and appropriate regions of interest drawn. The method used for quantitation of the radioactivity utilized conjugate view images (180° opposed anterior and posterior planar images). Prior to patient studies a phantom study was performed under fixed geometry to determine a correction factor for patient attenuation and scatter and a system calibration factor. The phantom consisted of a simulated tumor containing 277.5 μCi of Pt-195m in an abdominal phantom filled with water to simulate patient attenuation and scatter. […] The activities determined from the conjugate view counting technique were divided by the administered activity and multiplied by 100 to obtain the percent tumor uptakes. Tumor-to-normal liver ratios were determined from the various regions of interest.
# (§2) Because of a high response rate to intra-arterial cisplatinum compared to intravenous delivery a study was done to estimate whether there was a differential tumor uptake of cisplatinum. Patients were given similar tracer doses of ^195m cisplatinum, first intravenously then by HAI. It was estimated that the maximum dose for this diagnostic quantitative trial would be 1.0 mCi, which would yield an estimated absorbed dose no greater than 5 centigray to the kidneys and therefore not cause toxicity. […] FIG. 6 is an example of their gamma camera study done the same day following the intra-arterial injection of 1.0 mCi ^195 Pt cisplatinum. […] Table 4 summarizes the data for this diagnostic quantitative trial following HAI of ^195m cisplatinum. As shown, the mean tumor uptake was 48.4% (range 34.2-55.4%) of the given activity and the mean ratio of tumor-to-liver uptake was 2.1 (range 1.6-2.4).
# tumor (hepatoma) = assay: Scintigraphic scans of 195^m cisplatin given intravenously and intra-arterially to the same patient; type: in vivo
# Description: When the drug was given intravenously,less than five percent deposited in the tumor. When the drug was given intra-arterially, 35 to 40 percent of the drug deposited in the tumor, as witnessed by scintigraphic scans.
# as §2
# [2] = Safety of ^195m cisplatinum given by HAI; type: in vivo; conditions: six patients
# Experimental: as §1
# as §2, with “As shown, the mean tumor uptake was 48.4% (range 34.2-55.4%) of the given activity and the mean ratio of tumor-to-liver uptake was 2.1 (range 1.6-2.4).” left out
# hepatocellular carcinoma [3] = conditions: intravenous, cited from earlier work
# [4] = test system: non-resectable hepatocellular carcinoma; assay: Remission and survival of hepatoma patients treated monthly with hepatic artery infusion (HAI) of cisplatinum at 50 mg/m^2; type: in vivo; conditions: intra-arterial, 50 mg/m^2, 28 patients
# [5] = test system: non-resectable hepatocellular carcinoma; assay: as above; type: in vivo; design: median survival, increase over the six months reported from other regimens: unit not given here; conditions: for survival: one patient
# Description: Patient population: All patients were required to have histologic documentation of hepatocellular carcinoma. Pre-treatment evaluation included a complete medical history and physical examination, hepatitis virus status and complete blood cell counts, biochemical survey including lactate dehydrogenase, alkaline phosphatase, BUN, creatinine, bilirubin, PT/PTT and alpha fetoprotein (AFP) level; radiographic studies including CT scans of the chest, abdomen and pelvis with volumetric reconstruction of both tumor and normal liver volumes allowed determination of percentage of liver replacement by tumor. The presence of ascites was determined using both clinical examination and imaging results. Excluded were patients with a creatinine >1.5 and/or BUN >25. All patients gave written informed consent. Prior to referral to our facility 23 patients (34%) had multiple chemotherapeutic regimens. Of the 67 patients, 44 (65%) were treated with external beam radiation to the involved liver as a component of the prescribed treatment program. Assessment of liver function was done using the modified Childs-Pugh classification (41). The American Joint Committee on Cancer staging system was used to stage tumor extent in all patients (42). […]
# Intrahepatic arterial chemotherapy: The infusion was performed either with a temporary percutaneous femoral or axillary artery catheter or implanted port or pump. On the day prior to treatment the patients were instructed to take 1 to 2 liters of fluid orally. On admission, 1 liter of 5% dextrose in normal saline with 20 meq potassium was given intravenously. Utilizing a femoral or axillary artery transcutaneous approach an arteriogram of the common hepatic artery was done. Next, cisplatinum 50 mg/m^2 was dissolved to a concentration of 1 mg per ml of sterile water. The solution was then infused intra-arterially at a rate of 1 mg/minute. The chemotherapy was always infused into the most distal artery feeding the main mass of the tumor. Appropriate antiemetic therapy, generally Odansetron 0.15 mg/kg IV and dexamethasone 20 mg IV was administered before the cisplatinum infusion and as needed after the infusion. On discharge home patients were given an oral antiemetic regimen of Lorazepam 1 mg, every six hours, or Odansetron 8 mg every twelve hours, as needed and Dexamethasone 4 mg every six hours for one day. Patients continued monthly HAI of cisplatinum until evidence of progressive disease or death. All patients were assessable for response.
# Assessment of response: Routine clinical examinations and laboratory testing were performed at monthly intervals or as clinically indicated. The defined improvements on a minimum of two CT scans and/or AFP titers obtained at least two months apart were required to delineate response. Tumor volumes were quantified by computed tomography scan volumetric analysis of the liver as previously reported (20,43). Complete remission was the disappearance of all clinical evidence of tumor for a minimum of one month. Partial remission was a decrease of 50% or more in the volume of all measurable lesions measured on contrast-enhanced CT scan or a ≥50% reduction in AFP titer. Stable disease was a <50% decrease or <25% increase in tumor volume or AFP titer. Progressive disease was the increase of at least 25% in the tumor volume of all measurable lesions on CT scan or by AFP titer. Toxicity was assessed monthly during HAI therapy using RTOG criteria (44) with scores ≥3 considered to be major toxicities.
# Statistical methods: The log-rank procedure was used to test for any statistical differences in survival distribution between patient populations (47). Survival curves were generated by the Kaplan Meier technique (48). Each survival curve was plotted as a step function of the Kaplan-Meier estimates.
# Intra-arterial hepatic infusions were given to 67 patients with non-resectable hepatocellular carcinoma treated between July 1991 and September 1997. […]
# [6] = HAI, per patient (b206-b211 = patients 1-6), thirty minutes after administration
# [7] = intra-arterial, tracer quantities
# [8] = HAI after failing previous therapy, disease confined to liver, AFP (+)
# [9] = HAI after failing previous therapy, disease confined to liver, AFP (-)
smiles,measurement,setting,value
"O=c1[nH]cc(F)c(=O)[nH]1 [5-FU, 5-fluorouracil]",effectiveness,hepatoma,inconsistently effective
CO[C@@]12[C@H](COC(N)=O)C3=C(C(=O)C(C)=C(N)C3=O)N1C[C@@H]1N[C@@H]12 [mitomycin],effectiveness,hepatoma,inconsistently effective
C[C@@H](O)[C@@H]1NC(=O)[C@H](CCCCN)NC(=O)[C@@H](Cc2c[nH]c3ccccc23)NC(=O)[C@H](Cc2ccccc2)NC(=O)[C@@H](NC(=O)[C@H](N)Cc2ccccc2)CSSC[C@@H](C(=O)N[C@H](CO)[C@@H](C)O)NC1=O [octreotide],median survival,hepatocellular carcinoma [1],13 months
[NH2][195Pt]([NH2])([Cl])[Cl] [^195m cisplatinum],concentration in viable hepatoma (imaging),viable hepatoma; HAI,hyperconcentration
same,Tumor uptake,viable hepatoma; [6],55.4% and 49.6% and 52.8% and 48.3% and 34.2% and 50.3%
same,Tumor-to-liver uptake ratio,viable hepatoma; [6],1.6 and 2.3 and 2.4 and 2.1 and 2.0
same,Tumor activity,"viable hepatoma; HAI, per patient (b206-b211 = patients 1-6), thirty minutes after administration, administered 252-1011 μCi",140 μCi and 501 μCi and 528 μCi and 489 μCi and 343 μCi and 503 μCi
same,mean ratio of tumor-to-liver uptake,"viable hepatoma; HAI, six patients",2.1
same,mean tumor uptake of the given activity,"viable hepatoma; HAI, six patients",48.4%
same,range of ratio of tumor-to-liver uptake,"viable hepatoma; HAI, six patients",1.6-2.4
same,range of tumor uptake of the given activity,"viable hepatoma; HAI, six patients",34.2-55.4%
same,exposure of the tumor vs intravenous route,"viable hepatoma; intra-arterial, tracer amounts",selectively exposes the tumor to higher drug levels than can be achieved by the intravenous route
same,kinetics,viable hepatoma; [7],first-pass kinetics
same,selective tumor uptake,viable hepatoma; [7],34-55 % of administered dose
same,drug deposited in the tumor,tumor (hepatoma); intravenous,less than five
same,adverse events,[2],no adverse events occurred
"N.N.[Cl][Pt][Cl] [cisplatin, cisdiamminedichloroplatinum]",response rate,hepatocellular carcinoma [3],less than five
same,response rate (in words),hepatocellular carcinoma [3]; single drug,relatively poor response rate
same,remission,[4],50%
same,median survival,"[5]; AFP positive patients, as compared with octreotide study",12 months
same,alive at one year,[5]; [8],56%
same,median survival,[5]; [8],17.3 months
same,alive at one year,[5]; [9],75%
same,median survival,[5]; [9],46.3 months
same,median survival,"[5]; HAI after prior treatment failure, extra-hepatic metastases, AFP (+)/elevated",8.9 months
same,median survival,"[5]; HAI after prior treatment failure, extra-hepatic metastases, AFP (-)/not elevated",11.1 months
same,median survival,"[5]; HAI as primary therapy, disease confined to liver, AFP (+)",12.0 months
same,median survival,"[5]; HAI as primary therapy, disease confined to liver, AFP (-)",17.5 months
same,median survival,"[5]; HAI as primary therapy, extra-hepatic metastases, AFP (+)/elevated",7.1 months
same,survival,"[5]; HAI as primary therapy, extra-hepatic metastases, AFP (-)/not elevated, listed as HAI-CDDP",21.0 months
same,survival,"[5]; HAI as primary therapy, extra-hepatic metastases, AFP (-)/not elevated, listed as cisplatinum",21 months
same,long term remission,"[5]; HAI, 50 mg/m^2",long term remission can be obtained
same,median survival,"[5]; HAI, AFP (+), all patients",10.3 months
same,overall survival at one year,"[5]; HAI, AFP (+), all patients",45%
same,overall survival at one year,"[5]; HAI, AFP (-), all patients",59%
same,median survival,"[5]; HAI, AFP (-), all patients, listed as cisplatinum",21.8 months and 21 months
same,median survival,"[5]; HAI, chronic Hepatitis B or C, regardless of AFP status",10.7 months
same,significance of overall survival difference AFP (+) vs AFP (-),"[5]; HAI, log rank",significantly different
same,overall median survival,"[5]; HAI, present study group",10.3 months
same,response rate,[5]; arterial route,≥ 50%
same,response,"[5]; intra-arterial, 67 patients",50%
same,remission,"[5]; intra-arterial, 95 patients combined",50%
same,"median survival, increase over the six months reported from other regimens","[5]; worst group of hepatomas (AFP+ positive), intra-arterial",one
same,"binding on the hepatoma, persistence",tumor (hepatoma); intra-arterial,apparently stays there for a persistent period of time

# — patent US6074626A (Molecular Radiation Management, Inc., priority 1999, dated 2000)
